Measurements from the NIST ThermoML archive (doi:10.1021/je900124n).
Where “and” joins values, the source holds several entries; their conditions need not be identical. Equal entries are not always repeated.

Settings: Fluid (supercritical or subcritical phases), Buoyancy - hydrostatic balance with magnetic suspension - two sinkers

CCC [propane]
Settings | mass density
315 K, 774.95 kPa | 14.7169 kg/m3 and 14.7168 kg/m3
315 K, 774.96 kPa | 14.7169 kg/m3 and 14.7168 kg/m3
315 K, 1306.4 kPa | 27.9201 kg/m3 and 27.9221 kg/m3
315 K, 1306.5 kPa | 27.9244 kg/m3
315 K, 1306.6 kPa | 27.927 kg/m3 and 27.926 kg/m3
320 K, 270.24 kPa | 4.64 kg/m3 and 4.6399 kg/m3 and 4.6398 kg/m3
320 K, 476.69 kPa | 8.4338 kg/m3 and 8.4339 kg/m3
320 K, 789.41 kPa | 14.6898 kg/m3
320 K, 789.42 kPa | 14.69 kg/m3
320 K, 789.43 kPa | 14.6907 kg/m3 and 14.6901 kg/m3
320 K, 1333.7 kPa | 27.726 kg/m3
320 K, 1333.9 kPa | 27.7763 kg/m3
320 K, 1334.3 kPa | 27.7883 kg/m3
320 K, 1334.6 kPa | 27.742 kg/m3
320 K, 1335 kPa | 27.8035 kg/m3
320 K, 2017.4 kPa | 457.1 kg/m3
320 K, 2018.5 kPa | 457.104 kg/m3
320 K, 2018.7 kPa | 457.105 kg/m3
320 K, 2018.8 kPa | 457.104 kg/m3
320 K, 2019.1 kPa | 457.105 kg/m3
320 K, 2019.3 kPa | 457.11 kg/m3
320 K, 2019.4 kPa | 457.108 kg/m3
320 K, 2019.5 kPa | 457.11 kg/m3
320 K, 2019.8 kPa | 457.109 kg/m3 and 457.107 kg/m3 and 457.108 kg/m3
320 K, 2019.9 kPa | 457.109 kg/m3
320 K, 4080.8 kPa | 466.418 kg/m3
320 K, 4080.9 kPa | 466.42 kg/m3
320 K, 4081 kPa | 466.419 kg/m3
320 K, 4081.3 kPa | 466.42 kg/m3
320 K, 4081.6 kPa | 466.42 kg/m3
320 K, 8257.8 kPa | 481.065 kg/m3
320 K, 8258.1 kPa | 481.068 kg/m3
320 K, 8258.4 kPa | 481.067 kg/m3 and 481.068 kg/m3
320 K, 10347 kPa | 487.109 kg/m3 and 487.106 kg/m3 and 487.107 kg/m3
320 K, 10348 kPa | 487.113 kg/m3 and 487.107 kg/m3
320 K, 10349 kPa | 487.112 kg/m3
320 K, 12003 kPa | 491.44 kg/m3
320 K, 12004 kPa | 491.44 kg/m3 and 491.441 kg/m3
320 K, 16094 kPa | 500.965 kg/m3
320 K, 16095 kPa | 500.967 kg/m3
320 K, 16096 kPa | 500.967 kg/m3
320 K, 20063 kPa | 508.971 kg/m3 and 508.967 kg/m3 and 508.969 kg/m3
320 K, 20064 kPa | 508.969 kg/m3 and 508.971 kg/m3
320 K, 24069 kPa | 516.143 kg/m3
320 K, 24072 kPa | 516.146 kg/m3 and 516.148 kg/m3 and 516.147 kg/m3
320 K, 29981 kPa | 525.489 kg/m3
320 K, 29983 kPa | 525.494 kg/m3
320 K, 29985 kPa | 525.495 kg/m3
320 K, 29986 kPa | 525.497 kg/m3
320 K, 35299 kPa | 532.943 kg/m3
320 K, 35300 kPa | 532.945 kg/m3 and 532.943 kg/m3
320 K, 35301 kPa | 532.945 kg/m3
325 K, 803.73 kPa | 14.6629 kg/m3 and 14.6627 kg/m3 and 14.6626 kg/m3
325 K, 803.74 kPa | 14.6631 kg/m3 and 14.6629 kg/m3
325 K, 1340.6 kPa | 27.0793 kg/m3
325 K, 1340.9 kPa | 27.1015 kg/m3
325 K, 1341.2 kPa | 27.0724 kg/m3
325 K, 1341.8 kPa | 27.0948 kg/m3
330 K, 278.72 kPa | 4.6293 kg/m3 [middle of 4 runs]
330 K, 492.57 kPa | 8.4128 kg/m3 and 8.4127 kg/m3
330 K, 492.58 kPa | 8.4128 kg/m3 and 8.4127 kg/m3
330 K, 817.85 kPa | 14.6343 kg/m3
330 K, 817.86 kPa | 14.6347 kg/m3 and 14.6346 kg/m3 and 14.6343 kg/m3
330 K, 817.87 kPa | 14.6348 kg/m3
330 K, 1346.8 kPa | 26.4281 kg/m3
330 K, 1347 kPa | 26.4322 kg/m3
330 K, 1347.2 kPa | 26.4396 kg/m3
330 K, 1347.3 kPa | 26.4407 kg/m3 and 26.4409 kg/m3
330 K, 1714.5 kPa | 36.5728 kg/m3 [middle of 5 runs]
335 K, 1765.2 kPa | 36.7322 kg/m3 and 36.7333 kg/m3 and 36.7309 kg/m3
335 K, 1765.3 kPa | 36.7327 kg/m3 and 36.733 kg/m3
340 K, 287.12 kPa | 4.6188 kg/m3 and 4.6185 kg/m3
340 K, 287.13 kPa | 4.6186 kg/m3
340 K, 508.31 kPa | 8.392 kg/m3 and 8.3919 kg/m3
340 K, 508.32 kPa | 8.3921 kg/m3
340 K, 508.33 kPa | 8.3921 kg/m3
340 K, 846.05 kPa | 14.5839 kg/m3
340 K, 846.06 kPa | 14.584 kg/m3 and 14.5839 kg/m3
340 K, 846.07 kPa | 14.5839 kg/m3
340 K, 1352.2 kPa | 25.1571 kg/m3
340 K, 1352.4 kPa | 25.1613 kg/m3 and 25.1637 kg/m3
340 K, 1352.5 kPa | 25.161 kg/m3
340 K, 1352.7 kPa | 25.168 kg/m3
340 K, 1816.9 kPa | 36.9173 kg/m3
340 K, 1817.1 kPa | 36.9239 kg/m3 and 36.9243 kg/m3
340 K, 2355.2 kPa | 55.4656 kg/m3
340 K, 2355.4 kPa | 55.4825 kg/m3 and 55.4906 kg/m3
340 K, 2355.5 kPa | 55.5083 kg/m3
340 K, 2355.8 kPa | 55.4793 kg/m3
340 K, 3925.4 kPa | 425.071 kg/m3 and 425.069 kg/m3
340 K, 3925.5 kPa | 425.072 kg/m3
340 K, 3925.6 kPa | 425.073 kg/m3 and 425.071 kg/m3 and 425.072 kg/m3
340 K, 3925.7 kPa | 425.072 kg/m3 and 425.071 kg/m3
340 K, 3925.8 kPa | 425.071 kg/m3 and 425.072 kg/m3
340 K, 8053.4 kPa | 448.649 kg/m3
340 K, 8053.5 kPa | 448.65 kg/m3
340 K, 8053.6 kPa | 448.651 kg/m3
340 K, 8053.8 kPa | 448.649 kg/m3
340 K, 8054.1 kPa | 448.649 kg/m3
340 K, 12040 kPa | 464.072 kg/m3 and 464.071 kg/m3
340 K, 12041 kPa | 464.071 kg/m3
340 K, 16069 kPa | 476.246 kg/m3 and 476.247 kg/m3 and 476.248 kg/m3
340 K, 16070 kPa | 476.248 kg/m3
340 K, 19781 kPa | 485.636 kg/m3
340 K, 19783 kPa | 485.642 kg/m3 and 485.644 kg/m3
340 K, 19784 kPa | 485.647 kg/m3 [middle of 4 runs]
340 K, 19785 kPa | 485.649 kg/m3
340 K, 19943 kPa | 485.999 kg/m3
340 K, 19946 kPa | 486.007 kg/m3 and 486.009 kg/m3 and 486.006 kg/m3
340 K, 19947 kPa | 486.007 kg/m3
340 K, 23981 kPa | 494.781 kg/m3 and 494.78 kg/m3
340 K, 23982 kPa | 494.781 kg/m3
340 K, 29812 kPa | 505.708 kg/m3
340 K, 29815 kPa | 505.714 kg/m3
340 K, 29816 kPa | 505.715 kg/m3 and 505.712 kg/m3
340 K, 29817 kPa | 505.713 kg/m3
